Reference: patent US6803046B2, “Sincalide formulations” (Bracco International B.V., priority 2002, dated 2004)

What was measured:
[1] = test system: gallbladder; details: patients pretreated before hepatobiliary imaging; typical; cited from earlier work
[2] = Metal ion oxidative effects on sincalide with/without DTPA (RP-HPLC); type: physicochemical; details: analyzed within 8 hours
Procedure: Experiments were performed to determine whether these residues, as present in sincalide, were susceptible to oxidation by free metals. These experiments also examined the role of DTPA as a formulation excipient to chelate metals and thereby inhibit sincalide oxidation. FIGS. 2-4 show the three oxidized forms of sincalide containing either mono- or disulfoxides.
The experimental formulation (25 mL) solution with (+) and without (−) DTPA were individually spiked with nine metal ions, as summarized in Table 7.
Copper and manganese, in the absence of DTPA, have the greatest oxidative effect on the methionine residues of sincalide resulting in combined weight percentages of Met 3 and Met 6 monosulfoxides (vs sincalide) of 85.5 and 128.9, respectively. In addition to the presence of sincalide Met 3 and Met 6 monosulfoxides (tR≈14.8 min. {doublet} and tR≈18 min.), formation of sincalide disulfoxide (tR≈6.5 min.) was also noted in the cases of copper and manganese, but not with the other metals.

## CSCC[C@H](NC(=O)[C@H](Cc1ccc(OS(=O)(=O)O)cc1)NC(=O)[C@@H](N)CC(=O)O)C(=O)NCC(=O)N[C@@H](Cc1c[nH]c2ccccc12)C(=O)N[C@@H](CCSC)C(=O)N[C@@H](CC(=O)O)C(=O)N[C@@H](Cc1ccccc1)C(N)=O [Sincalide, 1-De(5-oxo-L-glutamine-5-L-proline)-2-de-L-methioninecaerulein]
[1]
  time to gallbladder contraction after sincalide injection: ≤ 15 min
[2]; experimental formulation without DTPA spiked with copper (0.63 mM Cu2+)
  combined percentages of Met 3 and Met 6 monosulfoxides (vs sincalide): 85.5%
[2]; experimental formulation without DTPA spiked with manganese (0.18 mM Mn2+)
  combined percentages of Met 3 and Met 6 monosulfoxides (vs sincalide): 128.9%
